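Each compound was tested at five concentrations against cells in 96-well plates for 48 hours. Here, GI50 denotes the concentration required for 50% inhibition of growth. TGI is the concentration that stops growth completely.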
How the values were obtained:
Experiment in all cases: NCI tumour cell line growth inhibition, 48 h
SW-620 colon = test system: SW-620 colon
A549 NSCLC = test system: A549 NSCLC
K-562 leukemia = test system: K-562 leukemia
SK-MEL-2 melanoma = test system: SK-MEL-2 melanoma
UACC-62 melanoma = test system: UACC-62 melanoma
SR leukemia = test system: SR leukemia
MDA-MB-435 = test system: MDA-MB-435
HCT-116 colon = test system: HCT-116 colon
NCI-H522 lung = test system: NCI-H522 lung
DU-145 prostate = test system: DU-145 prostate

| Structure (SMILES) | TGI (SW-620 colon) | TGI (A549 NSCLC) | TGI (K-562 leukemia) | TGI (SK-MEL-2 melanoma) | TGI (UACC-62 melanoma) | GI50 (SW-620 colon) | GI50 (SR leukemia) | TGI (SR leukemia) | GI50 (MDA-MB-435) | TGI (MDA-MB-435) | GI50 (A549 NSCLC) | GI50 (K-562 leukemia) | GI50 (HCT-116 colon) | TGI (HCT-116 colon) | GI50 (NCI-H522 lung) | TGI (NCI-H522 lung) | GI50 (SK-MEL-2 melanoma) | GI50 (UACC-62 melanoma) | GI50 (DU-145 prostate) | TGI (DU-145 prostate) |
| --- | --- | --- | --- | --- | --- | --- | --- | --- | --- | --- | --- | --- | --- | --- | --- | --- | --- | --- | --- | --- |
| CC(C)(C)c1cc2nc(c1)C(C(F)(F)F)(C(F)(F)F)OB(Br)OC2(C(F)(F)F)C(F)(F)F | 15.8 µM | 6.77 µM | 10 µM | 11.2 µM | 0.983 µM |  |  |  |  |  |  |  |  |  |  |  |  |  |  |  |
| C=C1[C@@H](O)O[C@H]2[C@H]1C[C@H](OC(C)=O)[C@]13C(=O)O[C@H]4C[C@](C)(O)[C@H]([C@H]41)C31C=C(C)[C@]2(O)O1 | > 100 µM | > 100 µM | > 100 µM | 59.7 µM | > 100 µM | 29.8 µM | 40.9 µM | > 100 µM | 13.3 µM | > 100 µM | > 100 µM | 53.8 µM | 19.8 µM | 38.2 µM | 4.53 µM | 21.4 µM | 18.6 µM | 30.3 µM |  |  |
| c1cc(N2CCN(c3ccc(C4=NCCCN4)cc3)CC2)ccc1C1=NCCCN1 | > 100 µM | > 100 µM | > 100 µM | > 100 µM | > 35.3 µM | > 62.6 µM |  |  |  | > 20.3 µM | > 80.6 µM | > 65.5 µM | 50.2 µM | > 100 µM | > 55.9 µM | > 100 µM | > 100 µM |  | > 66.6 µM | > 100 µM |
| O=C(CN1N=C(c2ccc(F)cc2)CCC1=O)Nc1nc2ccccc2s1 | > 100 µM | > 100 µM | > 100 µM | > 100 µM | > 100 µM | > 49.5 µM |  |  | > 73.5 µM | > 100 µM | 13.7 µM | 5.32 µM | 46.9 µM | > 100 µM | 0.187 µM | 0.371 µM | > 89.8 µM | 7.62 µM | > 25.6 µM | > 100 µM |
| CC1c2ccccc2CCN1c1ccc(CO)c(Cl)c1 (stereo not drawn) | > 100 µM | 17.1 µM | > 100 µM |  | 14.5 µM | 0.203 µM | 28.3 µM | > 85.9 µM | 17.3 µM | 53.5 µM | 0.759 µM | 0.385 µM | 0.0345 µM | 12.6 µM | 17.4 µM | 50.5 µM |  | 0.15 µM | 11.6 µM | > 53 µM |
| N#CCCNc1nonc1-c1nc2ccccc2n1CC(=O)c1ccc(NC(=O)[C@@H](N)CCCCN)cc1 | > 100 µM | > 100 µM | > 100 µM |  | > 100 µM | 0.0443 µM | 0.025 µM | > 100 µM |  | 0.0742 µM | 0.0463 µM | 0.0322 µM | 0.04 µM | > 100 µM | 0.0363 µM | > 100 µM |  | 0.0213 µM | 0.0323 µM | 0.0994 µM |
| CC1=NN(c2ccccc2)C(=O)/C1=C\c1ccc([N+](=O)[O-])cc1 | 93.2 µM | > 100 µM | 81.4 µM | 56 µM | 53.3 µM |  |  |  |  |  |  |  |  |  |  | 57.9 µM |  |  |  |  |

— PubChem BioAssay (NCI)
